Source: patent publication US20170176446A1, “Methods for Determining the Oncogenic Condition of Cell, Uses Thereof, and Methods for Treating Cancer” (INSERM (INSTITUT NATIONAL DE LA SANTE ET DE LA RECHERCHE …, priority 2009, published 2017)

Experiments:
A-549 = assay: Inhibition of OCDO production by PBPE in A-549; assay type: cell-based; settings: Homo sapiens, A549, 40 μM PBPE, 48 hours
Method: (§1) An analogous experiment was reproduced with different cell lines, with the cells tested being incubated for 48 hours in a 40 μM solution of PBPE. It was noted that the OCDO was 100% inhibited for all the lines in the following table that were tested:
(§2) Generally, in order to establish the percentages of OCDO inhibition from the thin-layer chromatography (TLC) plates obtained as in assay 2, the radioactive metabolites are identified and quantified on the basis of said plates using a europium-sensitive plate of GP Phosphor screen type (GE Healthcare) and a Storm 840 phosphorimagor (GE Healthcare). The proportion of radiolabeled oxysterols is determined on the autoradiogram obtained by densitometry using the Image Quant 5.2 software. The percentage is calculated on the basis of the ratio between the amount of oxysterols quantified divided by the sum of the amounts of oxysterols (CEE+CE+CT+OCDO). Since the CEE (CE ester) originates exclusively from the CE, the percentage CE is calculated on the basis of the ratio (CE+CEE)/(CE+CEE+CT+OCDO).

C6 = assay: Inhibition of OCDO production by PBPE in C6; assay type: cell-based; settings: Rattus norvegicus, 40 μM PBPE, 48 hours
Method: as §1, §2

MDA-MB-231 = assay: Inhibition of OCDO production by PBPE in MDA-MB-231; assay type: cell-based; settings: Homo sapiens, 40 μM PBPE, 48 hours
Method: as §1, §2

P19 = assay: Inhibition of OCDO production by PBPE in P19; assay type: cell-based, murine; settings: Mus musculus, 40 μM PBPE, 48 hours
Method: as §1, §2

B-16-F10 = assay: Inhibition of OCDO production by PBPE in B-16-F10; assay type: cell-based, murine; settings: Mus musculus, B16-F10, 40 μM PBPE, 48 hours
Method: as §1, §2

HT-29 = assay: Inhibition of OCDO production by PBPE in HT-29; assay type: cell-based; settings: Homo sapiens, 40 μM PBPE, 48 hours
Method: as §1, §2

U-937 = assay: Inhibition of OCDO production by PBPE in U-937; assay type: cell-based; settings: Homo sapiens, 40 μM PBPE, 48 hours
Method: as §1, §2

ChEH [1] = biological target: T1, ChEH (Homo sapiens, UniProt Q15125); assay: Inhibition of ChEH activity in MCF7 cells (TLC of [14C]CE conversion); assay type: cell-based; settings: tamoxifen 0.01-5 μM with [14C]CEα; PBPE 0.01-10 μM with [14C]CEβ
T1 construct: MCF7 tumor cells, which originate from the American Tissue Culture Collection (ATCC), were used; host or cells: MCF7
Method: For this experiment, an aminoalkyl sterol included in French patent 2 838 741 (and also see: de Medina et al., J Med Chem: 2009, vol. 52, No. 23, p. 7765-7777), having the formula: 6-N-[2-(3H-imidazol-4-yl)ethylamino]cholestane-3β,5α-diol (DDA), was chosen. […]
A thin-layer chromatography was carried out, the plate of which has been reproduced in FIG. 23. On this plate, the incubation is carried out, for lane 1, with [^14C]CE; for lane 2, with [^14C]CT; for lane 3, with the vehicle solvent, which is the same as that used for assays 1 to 5; for lane 4, with [14C]CE and 0.1 μM of the aminoalkyl sterol; and for lane 5, with [^14C]CE and a concentration of 1 μM of the aminoalkyl sterol.

MCF7 cells = assay: OCDO production by MCF7 cells incubated with [14C]CE, thin-layer chromatography; assay type: cell-based, human
Summary of the method: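 MCF7 cells incubated with [14C]CE; lipids extracted, separated by silica TLC in ethyl acetate and quantified by phosphorimager densitometry. OCDO inhibition came from oxysterol proportions, OCDO over CEE+CE+CT+OCDO.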

ChEH [2] = biological target: T2, ChEH (Rattus norvegicus, UniProt Q9JJ46); assay: Determination of the Ki for ChEH on rat liver microsome proteins (Dixon method); assay type: biochemical; settings: 150 μg rat liver microsome proteins, [14C]CEα
T2 construct: 150 μg of rat liver microsome proteins are incubated; from tissue; host or cells: rat liver microsomes
T2 sequence (Q9JJ46 1-230): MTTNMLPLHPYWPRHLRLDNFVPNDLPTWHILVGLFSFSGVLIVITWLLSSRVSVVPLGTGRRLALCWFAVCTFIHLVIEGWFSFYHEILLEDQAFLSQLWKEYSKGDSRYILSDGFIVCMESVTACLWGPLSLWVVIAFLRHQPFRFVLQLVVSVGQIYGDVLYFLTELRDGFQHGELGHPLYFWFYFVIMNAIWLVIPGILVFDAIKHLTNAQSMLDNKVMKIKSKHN

TT = assay: Inhibition of OCDO production by PBPE in TT; assay type: cell-based; settings: Homo sapiens, 48 h, read-out: Inhibition of OCDO production
Method: as §1, §2

SH-N-SH = assay: Inhibition of OCDO production by PBPE in SH-N-SH; assay type: cell-based; settings: Homo sapiens, 48 h, read-out: Inhibition of OCDO production
Method: as §1, §2

Saos-2 = assay: Inhibition of OCDO production by PBPE in Saos-2; assay type: cell-based; settings: Homo sapiens, 40 μM PBPE, 48 hours
Method: as §1, §2

[3] = MCF7 cells, [14C]CEα, three days, concentration given with each compound, share of labeled oxysterols

T1 sequence (Q15125 whole entry): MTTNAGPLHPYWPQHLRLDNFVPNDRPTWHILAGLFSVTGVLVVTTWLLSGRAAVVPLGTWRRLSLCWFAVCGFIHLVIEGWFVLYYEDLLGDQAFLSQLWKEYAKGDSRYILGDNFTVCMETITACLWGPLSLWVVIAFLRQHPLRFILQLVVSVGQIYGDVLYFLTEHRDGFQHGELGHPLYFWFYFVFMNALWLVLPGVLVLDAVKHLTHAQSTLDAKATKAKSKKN

Q: c1ccc(Cc2ccc(OCCN3CCCC3)cc2)cc1 [PBPE, N,N-pyrrolidino-[(4-benzyl)phenoxy]ethanamine] was tested. Which inhibition at 40 µM (A-549) did it give?
A: Its inhibition at 40 µM is 100%.

Q: And the inhibition at 40 µM (C6)?
A: Its inhibition at 40 µM is 100%.

Q: And the inhibition at 40 µM (MDA-MB-231)?
A: Its inhibition at 40 µM is 100%.

Q: What about the inhibition at 40 µM (P19) of the same compound?
A: The inhibition at 40 µM was 100%.

Q: And the inhibition at 40 µM (B-16-F10)?
A: The inhibition at 40 µM was 100%.

Q: What about the inhibition at 40 µM (HT-29) of the same compound?
A: The inhibition at 40 µM was 100%.

Q: And the inhibition at 40 µM (U-937)?
A: Its inhibition at 40 µM is 100%.

Q: And the “inhibition of the ChEH activity (3 days) in MCF7 cells” value (ChEH [1])?
A: The value was “Dose-dependent inhibition”.

Q: And the inhibition at 40 µM (MCF7 cells; Homo sapiens, MCF7, MCF-7, 40 μM PBPE, 48 hours)?
A: Its inhibition at 40 µM is 100%.

Q: What about the “% CE” value (MCF7 cells; [3]) of the same compound?
A: The value was 89.2%.

Q: And the “% CT” value (MCF7 cells; [3])?
A: Its value is 4.6%.

Q: And the “% OCDO” value (MCF7 cells; [3])?
A: The value was 6.2%.

Q: What about the “OCDO production by MCF-7 (% control)” value (MCF7 cells; concentration in μM in parentheses after each molecule, control = 100) of the same compound?
A: Its value is under 1 % control.

Q: And the Ki (ChEH [2])?
A: Its Ki is 26.8 ± 6 nM.

Q: What about the inhibition at 40 µM (TT) of the same compound?
A: Its inhibition at 40 µM is 100%.

Q: And the inhibition at 40 µM (SH-N-SH)?
A: The inhibition at 40 µM was 100%.

Q: And the inhibition at 40 µM (Saos-2)?
A: The inhibition at 40 µM was 100%.
